Laboratory results as given in US20250320246A1, “3-AZASTEROID COMPOUNDS FOR THE TREATMENT OF DISEASES RELATED TO MITROCHONDRIAL FUNCTION” (NZP UK LIMITED, priority 2022, published 2025).

Tests used:
[1] = test system: sporadic PD patient fibroblasts; assay: Mitochondrial membrane potential (MMP, TMRM) in sporadic PD patient fibroblasts; type: cell-based, human; conditions: Homo sapiens, Fibroblast, 24 h, 3 sporadic PD patient fibroblasts
[2] = test system: iNeurons from sPD patients; assay: Cellular ATP in iNeurons (dopaminergic neurons derived from sPD patients); type: cell-based, human
Protocol: (§1) The fibroblasts lines and iNPC lines have previously been characterised and published in Carling et al, 2020.
(§2) Briefly, iNPCs are plated in a 6-well plate and cultured for 2 days in DMEM/F-12 medium with Glutamax™ supplemented with 1% NEAA, 2% B27 (Gibco) and 2.5 μM of DAPT. On day 3, DAPT is removed and the medium is supplemented with 1 μM smoothened agonist (SAG) and FGF8 (75 ng/ml) for additional 10 days. Neurons are replated at this stage. Subsequently SAG and FGF8 are withdrawn and replaced with BDNF (30 ng/ml), GDNF (30 ng/ml), TGF-b3 ([…]) and dcAMP (2 mM, Sigma) for 15 days, as previously described Schwartzentruber et al, 2020 and Carling et al, 2020. Dopaminergic neurons were treated with compounds at concentrations of 0.1 nM, 1 nM, 3 nM, 10 nM, 30 nM and 100 nM dosing every 3 days for the last 12 days of differentiation.
iNeurons were treated every 3 days for the last 12 days of the differentiation protocol. Cells are plated in 96 well plates; for live imaging cells are incubated for one hour at 37° C. with 80 nM tetramethlyrhodamine (TMRM), 1 μM LysoTracker® Green (Invitrogen) and Hoechst Stain solution (Sigma) at 1 μM before imaging using Opera Phenix™. Cellular ATP measurements are undertaken using ATPlite kit (Perkin Elmer) as per manufacturer's instructions. Mitochondrial reactive oxygen species generation was assessed using mitochondrial NpFR2 (probe; a kind gift from Dr Liz New, University of Sydney, Australia) at 20 μM and Hoechst stain solution at 1 μM for 30 mins at 37° C., then the dyes are removed and cells images using Opera Phenix™. Images generated from the live imaging experiments were analysed using Harmony® (Perkin Elmer software). We developed protocols in order to segment nucleus, cell boundary and processes, mitochondria, lysosomes, autophagosomes. We only analysed the z projection images collected from the z stacks.

[3] = test system: iNeurons from sPD patients; assay: Neuronal morphology (elongation) in iNeurons from sPD patients; type: cell-based, human
Protocol: as §1, §2
(§3) Cells are plated into 96 well plates and fixed using 4% paraformaldehyde for 30 minutes. After PBS washes cells are permeabilised using 0.1% Triton™ X-100 for 10 minutes and blocked using 5% goat serum for 1 hour. Cells are incubated with primary antibodies βIII tubulin (Millipore); activated caspase 3 (Cell Signaling); at 4° C. for 16 hours. Cells are washed using PBS-Tween® and incubated with Alexa Fluor™-conjugated secondary antibodies 488 and 568 (Invitrogen) and Hoescht (Sigma) 1 μM prior to imaging. Imaging was performed using the Opera Phenix™ high content imaging system (Perkin Elmer).
iNeurons were treated every 3 days for the last 12 days of the differentiation protocol. […] Mitochondrial reactive oxygen species generation was assessed using mitochondrial NpFR2 (probe; a kind gift from Dr Liz New, University of Sydney, Australia) at 20 μM and Hoechst stain solution at 1 μM for 30 mins at 37° C., then the dyes are removed and cells images using Opera Phenix™. Images generated from the live imaging experiments were analysed using Harmony® (Perkin Elmer software). […] We only analysed the z projection images collected from the z stacks.

[4] = test system: iNeurons from sPD patients; assay: Activated caspase 3 levels (apoptosis) in iNeurons from sPD patients; type: cell-based, human
Protocol: as §1, §2, §3

[5] = test system: mitochondrial respiratory chain complex I; assay: Complex I assay in mouse whole brain homogenate after IV dosing; type: in vivo; conditions: wild type mouse, 2 mg/kg IV
Protocol: Ex vivo mice brain was homogenated in a buffer of 250 mM sucrose, 20 mM HEPES, 3 mM EDTA, pH 7.5 at 4° C. Homogenisation was carried out using a Dounce homogenizer, for cortex samples, and by repetitive passage through a 0.5 mm syringe for isolated striatum. Samples were then incubated with 30 μl of detergent from the AbCam colorimetric Complex I assay kit on ice for 20 minutes. Samples are then centrifuged at 13,000 rpm for 30 mins. Triplicate samples per condition were blocked using the kit blocking buffer on the AbCam colorimetric Complex I assay kit plate for 3 hours. Samples are then washed using the kit wash buffer 3 times before the addition of the kit assay buffer containing NADH and colorimetric dye. The assay plate is read on a plate reader in a kinetic assay programme reading 450 nm in a 30 second interval for 50 minutes.
By 12 hours post injection complex I activity began to reduce again and was elevated by 98% above control. By 24 hours post injection, complex I activity was still elevated by 35% above control levels.

[6] = sPD derived dopaminergic neurons

EC50 ([2]; Homo sapiens, Neuron, sPD patient iNeurons, dosing every 3 days for last 12 days of differentiation): 5 nM
SMILES: C[C@H](CCCC(=O)O)[C@H]1CC[C@H]2[C@@H]3[C@@H](O)C[C@@H]4CNCC[C@]4(C)[C@H]3CC[C@]12C.Cl [Compound 28b, 3-Aza-7β-hydroxy-25-homo-5β-cholan-25-oic acid hydrochloride]
EC50 ([1]; 8-point range 0.06 nM-300 nM): 4.03 nM
Emax ([1]; max response with highest dose of compound (300 nM), read-out: MMP % of vehicle, top %): 101%
activity at 60 pM ([1]; max response with lowest dose of compound (0.06 nM), read-out: MMP % of vehicle, bottom %): 92.8%
effect on mitochondrial parameters in sPD derived dopaminergic neurons ([2]; both mitochondrial parameters (Table 3)): provides a protective effect on both mitochondrial parameters
ATP normalisation (% of controls) ([2]; sPD patient iNeurons treated, untreated sPD patients 50): 94.3 % of controls
neuronal morphology, in words [3, 6]: improving neuronal morphology
Neuronal morphology (elongation; % controls) ([3]; sPD patient iNeurons treated, untreated sPD patients 48): 68 % controls
apoptosis levels (as measured by activated caspase 3 levels), in words [4, 6]: reducing apoptosis levels
Activated caspase 3 levels ([4]; sPD patient iNeurons treated, untreated sPD patients 162): 138 % of level in iNeurons from Controls
complex I activity ([5]; 4 and 8 hours post injection): remained elevated to a similar extent
complex I activity increase ([5]; 1 hour after dosing): 125%
complex I activity elevated above control ([5]; 12 hours post injection): 98%
complex I activity elevated above control levels ([5]; 24 hours post injection): 35%
